Measured values as given in patent US20140350050A1, “PYRIDINE COMPOUNDS AS INHIBITORS OF KINASE” (TELIGENE LTD., priority 2011, published 2014).
pIC50: −log10 of the molar value.

What was measured:
ALK kinase = ALK kinase (Homo sapiens, UniProt Q9UM73); assay: ALK kinase assay; type: biochemical; settings: ALK kinase assay; read-out: ALK (IC50 grading)
Method: An in vitro assay which determines the ability of a test compound to inhibit ALK kinase. a) kinase-tagged T7 phage strains were prepared in an E. coli host derived from the BL21 strain. E. coli were grown to log-phase and infected with T7 phage and incubated with shaking at 32° C. until lysis. The lysates were centrifuged and filtered to remove cell debris. The remaining kinases were produced in HEK-293 cells and subsequently tagged with DNA for qPCR detection. […] The liganded beads were blocked with excess biotin and washed with blocking buffer (SeaBlock (Pierce), 1% BSA, 0.05% Tween 20, 1 mM DTT) to remove unbound ligand and to reduce non-specific binding. […] All reactions were performed in polystyrene 96-well plates in a final volume of 0.135 ml. […] The kinase concentration in the eluates was measured by qPCR. […]
b) An alternative method to conduct the kinase assay with the following condition and procedure: Reagent: Base Reaction buffer; 20 mM Hepes (pH 7.5), 10 mM MgCl2, 1 mM EGTA, 0.02% Brij35, 0.02 mg/ml BSA, 0.1 mM Na3VO4, 2 mM DTT, 1% DMSO.
1. Preparing indicated substrate in freshly prepared Base Reaction Buffer
2. Delivering any required cofactors to the substrate solution above
3. Delivering indicated kinase into the substrate solution and gently mix
4. Delivering compounds in DMSO into the kinase reaction mixture
5. Delivering ^33P-ATP (specific activity 0.01 μCi/μl final) into the reaction mixture to initiate the reaction.
6. Incubating kinase reaction for 120 min. at room temperature
7. Reactions are spotted onto P81 ion exchange paper (Whatman #3698-915)
8. Washing filters extensively in 0.75% Phosphoric acid. […]
c) An alternative method to conduct the kinase assay with the following condition and procedure: The assay was performed using Kinase-Glo Plus luminescence kinase assay kit (Promega). It measures kinase activity by quantitating the amount of ATP remaining in solution following a kinase reaction. The luminescent signal from the assay is correlated with the amount of ATP present and is inversely correlated with the amount of kinase activity.
The compound were diluted in 10% DMSO and 5 μl of the dilution was added to a 50 μl reaction so that the final concentration of DMSO is 1% in all of reactions. All of the enzymatic reactions were conducted at 30° C. for 40 minutes. The 50 μl reaction mixture contains 40 mM Tris, pH 7.4, 10 mM MgCl2, 0.1 mg/ml BSA, 1 mM DTT, 0.2 mg/ml substrate peptide, 10 μM ATP and ALK (Table 2.3.1). After the enzymatic reaction, 50 μl of Kinase-Glo Plus Luminescence kinase assay solution (Promega) was added to each reaction and incubate the plate for 5 minutes at room temperature. Luminescence signal was measured using a BioTek Synergy 2 microplate reader. ALK activity assays were performed in duplicate at each concentration. The luminescence data were analyzed using the computer software, Graphpad Prism. The difference between luminescence intensities in the absence of ALK (Lut) and in the presence of ALK (Luc) was defined as 100% activity (Lut−Luc). Using luminescence signal (Lu) in the presence of the compound, % activity was calculated as % activity={(Lut−Lu)/(Lut−Luc)}×100%, where Lu=the luminescence intensity in the presence of the compound (all percent activities below zero were shown zero in the table). The values of % activity versus a series of compound concentrations were then plotted using non-linear regression analysis of Sigmoidal dose-response curve generated with the equation Y=B+(T−B)/1+10^((Log EC50−X)×Hill Slope), where Y=percent activity, B=minimum percent activity, T=maximum percent activity, X=logarithm of compound and Hill Slope=slope factor or Hill coefficient. The IC50 value was determined by the concentration causing a half-maximal percent activity.

[1] = biological target: T1, BAF3-EML4-ALK stable cell line (Homo sapiens, UniProt Q9UM73); assay: BAF3-EML4-ALK cell assay (MTT cell proliferation); type: cell-based; settings: 72 hours, read-out: BAF3-EML4-ALK Cell (IC50 grading)
T1 construct: fused on or other part: Q9HC35 (Echinoderm microtubule-associated protein-like 4)
Method: BAF3-EML4-ALK Cell Assay:
A method of establishing BAF3-EML4-ALK stable cell line: Transfer 5×10^6 BAF3 cells to a new tube, pellet the cells, and remove PBS by aspiration.; Resuspend the cells in 1 ml electroporation buffer, this provides 5×10^6 of cells; Transfer 200 μl of cell suspension to EP tube, add 5 ug DNA, flip and place it on ice for 10 min; Pipet the 200 μl cell suspension into 2 mm electroporation cuvette; Place the cuvette into shockpod, close the lid, and press the PULSE button; Set parameters: Expentional decay pulse: VOL=200 V; CAP=900 uF, RES=1000Ω; Transfer all cells from electroporation cuvette to 6 well plate, adding 2 ml DMEMF12 containing 5 ng/ml IL3, 24 h later, replace the medium with DMEM F12 containing 2 μg/ml blasticidin S and 5 ng/ml IL3, maintain for 3 days; change the medium with DMEM F12 containing 2 ug/ml blasticidin S and 2.5 ng/ml IL3, maintain 3 days; change the medium with DMEM F12 containing 2 ug/Ml blasticidin S, maintain to culture.
MTT Cell proliferation assay: 5×10^3 per well cell with 100 μl medium was seeded in 96-well plate; 24 hours later, 100 μl fresh medium with various concentration of compounds; After the cells were treated by compounds for 72 hours, add 20 μl MTT (5 mg/ml) into each wells; The plate is incubated at 37° C. for 4 hours; Centrifuge the plate at 800 g for 10 mins, Aspirated the medium, add 150 μl DMSO into each well. Shake plates gently for 10 mins, Measure the absorbance at 570 nm on plate reader; IR=(WC−WT)/WC.

[2] = PK (pharmacokinetic) study in rat, cassette dosing; type: in vivo; settings: male, Wistar, plasma
Method: A representative protocol for the PK (pharmacokinetic) is as followed: Animals used were Wistar rat, male and weight about 300-359 grams. Compound 21 and 22 were given either IV or oral to the same animals by cassette dosing. The dose for each compound is 1 mg/kg (volume 5 ml/kg) IV and 2 mg/kg (volume 10 ml/kg) oral. The formulation for IV was in PBS, the pH is adjusted by dilute HCl until compounds were totally dissolved. 0.5% Na-CMC suspension was used for the oral formulation. Sample collection: for IV route, plasma sample were collected at the time point 0.083, 0.25, 0.5, 1, 1.5, 2, 4, 6, 8, 12, 24 h. For oral route, plasma sample were collected at the time point 0.167, 0.33, 0.5, 1, 2, 4, 6, 8, 12, 24 h. Analysis: LC-MS/MS is used to calculate PK parameters: t1/2, tmax, Cmax, Vss and AUC etc.

ALK kinase, sequence (Q9UM73 19-1620): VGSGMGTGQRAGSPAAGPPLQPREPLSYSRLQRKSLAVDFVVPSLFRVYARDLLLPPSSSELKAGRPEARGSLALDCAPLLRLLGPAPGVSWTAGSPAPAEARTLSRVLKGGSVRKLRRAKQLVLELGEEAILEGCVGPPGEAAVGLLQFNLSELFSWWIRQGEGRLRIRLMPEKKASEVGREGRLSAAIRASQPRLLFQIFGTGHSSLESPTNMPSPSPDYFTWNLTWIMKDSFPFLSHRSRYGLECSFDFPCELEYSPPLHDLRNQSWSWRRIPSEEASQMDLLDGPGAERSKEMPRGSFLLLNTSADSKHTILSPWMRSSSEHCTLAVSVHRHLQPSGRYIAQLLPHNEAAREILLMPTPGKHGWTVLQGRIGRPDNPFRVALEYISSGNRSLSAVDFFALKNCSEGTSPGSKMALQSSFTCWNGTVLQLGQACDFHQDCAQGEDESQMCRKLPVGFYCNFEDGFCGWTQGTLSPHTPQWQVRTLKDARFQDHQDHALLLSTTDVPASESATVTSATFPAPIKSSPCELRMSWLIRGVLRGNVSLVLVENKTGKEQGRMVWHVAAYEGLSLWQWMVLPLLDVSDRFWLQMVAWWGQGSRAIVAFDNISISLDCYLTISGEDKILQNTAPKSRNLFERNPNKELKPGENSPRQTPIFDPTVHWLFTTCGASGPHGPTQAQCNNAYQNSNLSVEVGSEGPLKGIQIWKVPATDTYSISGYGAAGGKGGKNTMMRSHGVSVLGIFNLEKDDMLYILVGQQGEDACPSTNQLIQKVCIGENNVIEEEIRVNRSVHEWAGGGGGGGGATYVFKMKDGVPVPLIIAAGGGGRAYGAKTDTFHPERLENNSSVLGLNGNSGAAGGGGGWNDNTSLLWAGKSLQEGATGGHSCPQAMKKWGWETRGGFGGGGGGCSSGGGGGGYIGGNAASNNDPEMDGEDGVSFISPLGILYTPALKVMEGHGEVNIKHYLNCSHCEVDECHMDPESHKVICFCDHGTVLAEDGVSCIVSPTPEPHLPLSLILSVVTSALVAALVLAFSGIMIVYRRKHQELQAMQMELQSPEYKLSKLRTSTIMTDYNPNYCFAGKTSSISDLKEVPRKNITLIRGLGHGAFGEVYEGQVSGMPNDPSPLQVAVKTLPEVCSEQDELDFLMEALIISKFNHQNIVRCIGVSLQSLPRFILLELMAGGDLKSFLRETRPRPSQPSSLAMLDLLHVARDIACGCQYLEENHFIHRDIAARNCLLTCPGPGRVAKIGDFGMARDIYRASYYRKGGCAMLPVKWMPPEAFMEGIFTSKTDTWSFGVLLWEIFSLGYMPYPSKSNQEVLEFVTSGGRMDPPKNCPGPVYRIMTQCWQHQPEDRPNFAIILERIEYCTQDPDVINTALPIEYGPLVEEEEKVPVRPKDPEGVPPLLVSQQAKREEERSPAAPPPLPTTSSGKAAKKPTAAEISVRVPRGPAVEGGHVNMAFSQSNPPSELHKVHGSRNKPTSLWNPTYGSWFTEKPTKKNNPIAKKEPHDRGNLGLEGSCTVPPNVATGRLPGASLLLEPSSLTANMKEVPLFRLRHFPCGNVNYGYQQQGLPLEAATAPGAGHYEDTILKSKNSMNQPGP
T1 sequence (Q9UM73 whole entry, change not shown, the tested form may be a part): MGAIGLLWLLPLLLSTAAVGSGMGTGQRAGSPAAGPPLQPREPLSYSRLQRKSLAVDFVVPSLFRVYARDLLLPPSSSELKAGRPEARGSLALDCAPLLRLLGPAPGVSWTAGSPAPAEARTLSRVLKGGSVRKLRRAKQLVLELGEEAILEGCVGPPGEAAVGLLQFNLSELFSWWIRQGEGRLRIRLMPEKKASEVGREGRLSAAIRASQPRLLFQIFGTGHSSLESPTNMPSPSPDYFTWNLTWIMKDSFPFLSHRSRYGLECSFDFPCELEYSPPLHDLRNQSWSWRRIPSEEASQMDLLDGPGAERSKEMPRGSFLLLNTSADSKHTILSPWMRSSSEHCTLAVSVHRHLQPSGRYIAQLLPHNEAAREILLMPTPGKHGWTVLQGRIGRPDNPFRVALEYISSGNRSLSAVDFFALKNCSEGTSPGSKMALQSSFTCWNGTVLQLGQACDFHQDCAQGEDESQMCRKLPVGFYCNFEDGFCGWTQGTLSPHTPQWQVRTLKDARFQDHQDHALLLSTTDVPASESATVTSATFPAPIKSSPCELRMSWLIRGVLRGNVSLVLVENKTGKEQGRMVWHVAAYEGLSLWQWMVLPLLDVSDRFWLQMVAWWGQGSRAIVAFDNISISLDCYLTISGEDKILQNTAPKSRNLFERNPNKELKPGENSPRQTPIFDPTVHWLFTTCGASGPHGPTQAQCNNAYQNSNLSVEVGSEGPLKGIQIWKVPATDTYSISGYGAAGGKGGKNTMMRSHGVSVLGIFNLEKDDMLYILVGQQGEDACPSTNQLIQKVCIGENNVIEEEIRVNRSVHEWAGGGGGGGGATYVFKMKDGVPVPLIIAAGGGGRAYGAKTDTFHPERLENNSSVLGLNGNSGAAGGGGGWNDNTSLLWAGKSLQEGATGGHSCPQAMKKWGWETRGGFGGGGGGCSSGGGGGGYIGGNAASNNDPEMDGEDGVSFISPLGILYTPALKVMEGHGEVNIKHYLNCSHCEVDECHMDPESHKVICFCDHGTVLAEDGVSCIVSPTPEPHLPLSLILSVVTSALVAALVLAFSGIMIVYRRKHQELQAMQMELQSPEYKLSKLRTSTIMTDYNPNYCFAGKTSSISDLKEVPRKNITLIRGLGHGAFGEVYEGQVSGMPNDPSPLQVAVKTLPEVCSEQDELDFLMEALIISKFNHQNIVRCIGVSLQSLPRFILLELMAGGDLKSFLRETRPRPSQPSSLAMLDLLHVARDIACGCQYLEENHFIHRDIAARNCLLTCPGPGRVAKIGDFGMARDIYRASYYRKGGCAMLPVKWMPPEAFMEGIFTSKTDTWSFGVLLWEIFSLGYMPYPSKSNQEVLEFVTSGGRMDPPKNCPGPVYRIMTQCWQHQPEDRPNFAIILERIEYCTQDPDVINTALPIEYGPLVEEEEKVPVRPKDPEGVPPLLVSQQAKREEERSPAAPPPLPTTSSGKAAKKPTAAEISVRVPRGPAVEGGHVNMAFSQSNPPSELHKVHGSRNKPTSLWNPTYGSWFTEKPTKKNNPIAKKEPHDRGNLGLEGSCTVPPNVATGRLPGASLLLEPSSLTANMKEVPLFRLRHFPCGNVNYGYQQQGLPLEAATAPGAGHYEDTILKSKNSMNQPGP

| SMILES | pIC50 (ALK kinase) | GI50 [1] [nM] | other results |
| --- | --- | --- | --- |
| [2H]C([2H])([2H])N1CCC(n2cc(-c3cnc(N)c(O[C@@H](C)c4c(Cl)ccc(F)c4Cl)c3)cn2)CC1 [Compound 15, (S)-3-(1-(2,6-dichloro-3-fluorophenyl)ethoxy)-5-(1-(1-d3-methyl-piperidin-4-yl)-1H-pyrazol-4-yl)pyridin-2-amine] | 6.00 to 7.00 | ≤ 1000 | – |
| CC(=O)Nc1ncc(-c2cnn(C3CCNCC3)c2)cc1O[C@@H](C)c1c(Cl)ccc(F)c1Cl [Compound 13, (S)—N-(3-(1-(2,6-dichloro-3-fluorophenyl)ethoxy)-5-(1-(piperidin-4-yl)-1H-pyrazol-4-yl)pyridin-2-yl)acetamide] | 6.00 to 7.00 | ≤ 1000 | – |
| CC(=O)Nc1ncc(-c2cnn(C3CCNCC3)c2)cc1OC(C)c1c(Cl)ccc(F)c1Cl (centres unmarked) [Compound 9, N-(3-(1-(2,6-dichloro-3-fluorophenyl)ethoxy)-5-(1-(piperidin-4-yl)-1H-pyrazol-4-yl)pyridin-2-yl)acetamide] | ≥ 7.00 | ≤ 100 | – |
| CCN1CCC(n2cc(-c3cnc(N)c(O[C@@H](C)c4c(Cl)ccc(F)c4Cl)c3)cn2)CC1 [Compound 16, (S)-3-(1-(2,6-dichloro-3-fluorophenyl)ethoxy)-5-(1-(1-ethylpiperidin-4-yl)-1H-pyrazol-4-yl)pyridin-2-amine] | 6.00 to 7.00 | ≤ 1000 | – |
| CCN1CCC(n2cc(-c3cnc(N)c(O[C@H](C)c4c(Cl)ccc(F)c4Cl)c3)cn2)CC1 [Compound 21, (R)-3-(1-(2,6-dichloro-3-fluorophenyl)ethoxy)-5-(1-(1-ethylpiperidin-4-yl)-1H-pyrazol-4-yl)pyridin-2-amine] | ≥ 7.00 | ≤ 100 | AUC(0-inf) ([2]; IV cassette 1 mg/kg): 443 ng·h/mL; AUC(0-t) ([2]; IV cassette 1 mg/kg): 442 ng·h/mL; Cmax ([2]; IV cassette 1 mg/kg): 317 ng/mL; MRT ([2]; IV cassette 1 mg/kg): 2.89 h; Tmax ([2]; IV cassette 1 mg/kg): 0.083 h; clearance ([2]; IV cassette 1 mg/kg): 37.7 mL/min/kg; half-life ([2]; IV cassette 1 mg/kg): 2.89 h; AUC(0-inf) ([2]; oral cassette 2 mg/kg): 154 ng·h/mL; AUC(0-t) ([2]; oral cassette 2 mg/kg): 148 ng·h/mL; Cmax ([2]; oral cassette 2 mg/kg): 22.9 ng/mL; MRT ([2]; oral cassette 2 mg/kg): 4.97 h; Tmax ([2]; oral cassette 2 mg/kg): 4 h; half-life ([2]; oral cassette 2 mg/kg): 2.99 h; bioavailability ([2]; oral cassette 2 mg/kg vs IV 1 mg/kg, read-out: F (bioavailability)): 16.8% |
| C[C@H](Oc1cc(-c2cnn(C3CCN(C)CC3)c2)cnc1N)c1c(Cl)ccc(F)c1Cl [Compound 14, (S)-3-(1-(2,6-dichloro-3-fluorophenyl)ethoxy)-5-(1-(1-methylpiperidin-4-yl)-1H-pyrazol-4-yl)pyridin-2-amine] | 6.00 to 7.00 | ≤ 1000 | – |
| CCN1CCC(n2cc(-c3cnc(N)c(OC(C)c4c(Cl)ccc(F)c4Cl)c3)cn2)CC1 (centres unmarked) [Compound 7, 3-(1-(2,6-dichloro-3-fluorophenyl)ethoxy)-5-(1-(1-ethylpiperidin-4-yl)-1H-pyrazol-4-yl)pyridin-2-amine] | ≥ 7.00 | ≤ 100 | – |
| [2H]C([2H])([2H])C([2H])([2H])N1CCC(n2cc(-c3cnc(N)c(O[C@@H](C)c4c(Cl)ccc(F)c4Cl)c3)cn2)CC1 [Compound 17, (S)-3-(1-(2,6-dichloro-3-fluorophenyl)ethoxy)-5-(1-(1-d5-ethyl-piperidin-4-yl)-1H-pyrazol-4-yl)pyridin-2-amine] | 6.00 to 7.00 | ≤ 1000 | – |
| CCN1CCC(n2cc(-c3cnc(NC(C)=O)c(OC(C)c4c(Cl)ccc(F)c4Cl)c3)cn2)CC1 (centres unmarked) [Compound 10, N-(3-(1-(2,6-dichloro-3-fluorophenyl)ethoxy)-5-(1-(1-ethylpiperidin-4-yl)-1H-pyrazol-4-yl)pyridin-2-yl)acetamide] | 6.00 to 7.00 | 100 to 1000 | – |
| CCCNc1ncc(-c2cnn(C3CCNCC3)c2)cc1OC(C)c1c(Cl)ccc(F)c1Cl (centres unmarked) [Compound 12, 3-(1-(2,6-dichloro-3-fluorophenyl)ethoxy)-5-(1-(piperidin-4-yl)-1H-pyrazol-4-yl)-N-propylpyridin-2-amine] | ≥ 6.00 | ≤ 1000 | – |
| C[C@@H](Oc1cc(-c2cnn(C3CCN(C)CC3)c2)cnc1N)c1c(Cl)ccc(F)c1Cl [Compound 19, (R)-3-(1-(2,6-dichloro-3-fluorophenyl)ethoxy)-5-(1-(1-methylpiperidin-4-yl)-1H-pyrazol-4-yl)pyridin-2-amine] | ≥ 7.00 | ≤ 100 | – |
| CCNc1ncc(-c2cnn(C3CCNCC3)c2)cc1OC(C)c1c(Cl)ccc(F)c1Cl (centres unmarked) [Compound 11, 3-(1-(2,6-dichloro-3-fluorophenyl)ethoxy)-N-ethyl-5-(1-(piperidin-4-yl)-1H-pyrazol-4-yl)pyridin-2-amine] | ≥ 6.00 | ≤ 1000 | – |
